Assays:
Head and Neck Cancer = test: Clinical study of EPT with intralesional bleomycin for head and neck cancers; assay type: in vivo, humans; parameters: key to Response Status: Complete Response (CR): Disappearance of all evidence of tumor as determined by physical examination, and/or biopsy.; Partial Response (PR): 50% or greater reduction in tumor volume.; No Response (NR): less than 50% reduction in tumor volume
Description: All of the following patients were treated with bleomycin intratumoral injection and needle arrays of different diameters with six needles. The voltage was set to achieve a nominal electric field strength of 1300 V/cm (the needle array diameter was multiplied by 1300 to give the voltage the generator was set at). The pulse length was 100 μs.
The study was designed as a single center feasibility clinical study in which the efficacy of the EPT procedure in combination with intralesional bleomycin was compared to that for traditional surgery, radiation, and/or systemic chemotherapy. Approximately 50 study subjects were enrolled in the study. All study subjects were assessed prior to treatment by examination and biopsy. Postoperative assessment of study subjects was weekly for 4-6 weeks, and monthly thereafter for a total of 12 months. Approximately 8 to 12 weeks following therapy, a biopsy of the tumor site was performed. Use of CT or MRI scans was utilized in accordance to standard medical follow-up evaluation of HNC subjects.
Tumor evaluation includes measuring the tumor diameter (in centimeters) and estimating its volume (in cubic centimeters). Prior to intratumoral administration of bleomycin sulfate, the tumor site is anesthetized with 1% lidocaine (xylocaine) and 1:100,000 epinephrine. The concentration of bleomycin sulfate injected is 4 units per milliliter, up to a maximum dose of 5 units per tumor. If more than one tumor per subject is treated, a total of 20 units per subject should not be exceeded. The dose of bleomycin administered is to be 1 unit/cm^3 of calculated tumor volume. Approximately ten minutes subsequent to the injection of bleomycin sulfate, the applicator is placed on the tumor and electrical pulses initiated. Each application or an initiation of electrical pulses is referred to as a sequence. The use of EPT is not a contraindication to any subsequent palliative treatment required by the subject.
In this study, success was defined as significant tumor regression in a period of 16 weeks or less without major side effects seen with traditional therapy. There are three possible response outcomes:
Complete Response (CR): Disappearance of all evidence of tumor as determined by physical examination, and/or biopsy. • Partial Response (PR): 50% or greater reduction in tumor volume. • No Response (NR): less than 50% reduction in tumor volume.
If the tumor increases (25% tumor volume) in size, other therapy, if indicated, was instituted per subject's desire.

[1] = system: Cutaneous and Subcutaneous Cancer; test: Clinical studies using bleomycin sulfate and EPT, cutaneous and subcutaneous cancer; assay type: in vivo, humans
Panc-3 = test: EPT of Panc-3 with neocarcinostatin, pre- and post-pulse injection; assay type: in vivo, nude mice
Excerpt: The Panc-3 and NSCLC models were utilized with the drug neocarcinostatin (NCS) following the same procedures as outlined above. […] It was believed that due to the low isoelectric point of NCS, electrostatic interaction prevented the drug from entering the tumor cell. Therefore, the experiment was repeated by pulsing first and injecting NCS post-pulse.

[2] = Adenocarcinoma, 2 patients, 2 lesions, IT 2 to 8 Units
[3] = Squamous Cell, 7 patients, 7 lesions, IT 1 to 16 Units
[4] = enrollment start 01/20/95, Basal Cell, 18 patients, 54 lesions, IT 0.5 to 3 Units
[5] = enrollment start 01/20/95, Kaposi Sarcoma, 1 patient, 4 lesions, IT 1 to 2 Units
[6] = enrollment start 01/20/95, Met. Melanoma, 10 patients, 84 lesions, IT 0.2 to 2 Units
[7] = enrollment start 01/20/95, Squamous Cell, 1 patient, 1 lesion, IT 1.5 Units
[8] = enrollment start 01/20/95, Summary, 30 patients, 146 lesions
[9] = enrollment start 02/18/94, Basal Cell, 2 patients, 6 lesions, IV 22 to 23 Units
[10] = enrollment start 02/18/94, Met. Breast Adenocarcinoma, 1 patient, 2 lesions, IV 17 Units
[11] = enrollment start 02/18/94, Met. Melanoma, 3 patients, 10 lesions, IV 19 to 23 Units
[12] = enrollment start 08/01/96, Basal Cell, 7 patients, 8 lesions, IT 0.8 to 0.64 Units
[13] = enrollment start 08/01/96, Summary, 7 patients, 8 lesions

## bleomycin sulfate
Head and Neck Cancer; [2]
  Tumor Response CR %: 0%
  Tumor Response NR %: 100%
  Tumor Response PR %: 100%
Head and Neck Cancer; [3]
  Tumor Response CR %: 43%
  Tumor Response NR %: 29%
  Tumor Response PR %: 29%
Head and Neck Cancer; Subject 1/J-S, first response (week 2)
  Response Status: PR (Partial Response (PR): 50% or greater reduction in tumor volume.)
Head and Neck Cancer; Subject 1/J-S, second response (week 8)
  Response Status: CR
Head and Neck Cancer; Subject 1/J-S, to CR
  Time to Response (Week): 8 Week
Head and Neck Cancer; Subject 1/J-S, to PR
  Time to Response (Week): 2 Week
Head and Neck Cancer; Subject 2/G-C
  Response Status: PR (Partial Response (PR): 50% or greater reduction in tumor volume.)
  Time to Response (Week): 4 Week
Head and Neck Cancer; Subject 3/L-O
  Response Status: CR
  Time to Response (Week): 3 Week
Head and Neck Cancer; Subject 4/G-R, first response (week 4)
  Response Status: PR (Partial Response (PR): 50% or greater reduction in tumor volume.)
Head and Neck Cancer; Subject 4/G-R, second response (week 9)
  Response Status: CR
Head and Neck Cancer; Subject 4/G-R, to CR
  Time to Response (Week): 9 Week
Head and Neck Cancer; Subject 4/G-R, to PR
  Time to Response (Week): 4 Week
Head and Neck Cancer; Subject 5/R-H, segmented treatment
  Response Status: NR** (No Response (NR): less than 50% reduction in tumor volume.)
Head and Neck Cancer; Subject 6/C-B
  Response Status: PR (Partial Response (PR): 50% or greater reduction in tumor volume.)
  Time to Response (Week): 2 Week
Head and Neck Cancer; Subject 7/C-J, segmented treatment
  Response Status: NR** (No Response (NR): less than 50% reduction in tumor volume.)
Head and Neck Cancer; Subject 8/L-J
  Response Status: PR (Partial Response (PR): 50% or greater reduction in tumor volume.)
  Time to Response (Week): 4 Week
Head and Neck Cancer; Subject 9/J-T
  Time to Response (Week): 7 Week
Head and Neck Cancer; Subject 9/J-T, segmented treatment
  Response Status: PR** (Partial Response (PR): 50% or greater reduction in tumor volume.)
Head and Neck Cancer; Subject No. 1, 3 and 4, of 9 subjects
  subjects with a complete response: Three
Head and Neck Cancer; Subject No. 2, 6, 8 and 9, of 9 subjects
  subjects with a partial response: four
Head and Neck Cancer; Subject No. 5 and 7, of 9 subjects
  subjects with no response: two
Head and Neck Cancer; Summary, 9 patients, 9 lesions
  Tumor Response CR %: 33%
  Tumor Response NR %: 22%
  Tumor Response PR %: 44%
Head and Neck Cancer; due to progressive disease or complications unrelated to study treatment (Subject No. 2, 5 and 7)
  subjects who died prior to reaching week 12: Three
[1]; [4]
  Tumor Response CR %: 94%
  Tumor Response NR %: 0%
  Tumor Response PR %: 9%
[1]; [5]
  Tumor Response CR %: 100%
  Tumor Response NR %: 0%
  Tumor Response PR %: 0%
[1]; [6]
  Tumor Response CR %: 91%
  Tumor Response NR %: 2%
  Tumor Response PR %: 9%
[1]; [7]
  Tumor Response CR %: 0%
  Tumor Response NR %: 0%
  Tumor Response PR %: 100%
[1]; [8]
  Tumor Response CR %: 89%
  Tumor Response NR %: 1%
  Tumor Response PR %: 10%
[1]; [9]
  Tumor Response CR %: 17%
  Tumor Response NR %: 0%
  Tumor Response PR %: 83%
[1]; [10]
  Tumor Response CR %: 100%
  Tumor Response NR %: 0%
  Tumor Response PR %: 0%
[1]; [11]
  Tumor Response CR %: 30%
  Tumor Response NR %: 50%
  Tumor Response PR %: 20%
[1]; [12]
  Tumor Response CR %: 67%
  Tumor Response NR %: 0%
  Tumor Response PR %: 33%
[1]; [13]
  Tumor Response CR %: 67%
  Tumor Response NR %: 0%
  Tumor Response PR %: 33%

B1: neocarcinostatin (protein, UniProt P0A3R9 35-147, looked up)
Neocarzinostatin: AAPTATVTPSSGLSDGTVVKVAGAGLQAGTAYDVGQCAWVDTGVLACNPADFSSVTADANGSASTSLTVRRSFEGFLFDGTRWGTVDCTTAACQVGLSDAAGNGPEGVAISFN
Panc-3; comparison of FIGS. 11a and 11b
  post-pulse versus pre-pulse administration: more effective than pre-pulse administration
Panc-3; post-pulse injection, day 13, mice ID 1, 2, 4 and 7 of 7, appeared to be due to edema
  final vs initial tumor volume: an increase in tumor volume was observed
Panc-3; post-pulse injection, day 23, separate group of 5 mice
  tumor volume: all mice showed a marked reduction in tumor volume
Panc-3; pre-pulse dosing
  reduction of tumor size: not effective in reducing tumor size at all

Source: patent US7412284B2, “Apparatus for electroporation mediated delivery for drugs and genes” (Genetronics, Inc., priority 1997, dated 2008)
